Assay results: BindingDB's records for patent US10738053 (Hoffmann-La Roche, 2020)

Target: Autotaxin (Homo sapiens, UniProt Q13822)
Assay: Enzyme Inhibition Assay
Method: Then, 15 μL of 41.7 nM ATX solution was added (30 nM final concentration), mixed five times and then incubated for 15 minutes at 30° C. 10 μL of MR121 substrate solution was added (1 μM final concentration), mixed 30 times and then incubated for 15 minutes at 30° C.

NS(=O)(=O)c1ccc(C(=O)N2C[C@H]3CN(C(=O)COc4ccc(OC(F)(F)F)cc4)C[C@]3(F)C2)c(F)c1 (relative stereo) [US10738053, Example 3.01]
IC50: 7 nM
